According to patent US5576174A, “Catalytic antibody with primary amine cofactor” (The Scripps Research Institute, priority 1995, dated 1996):

Experiments:
[1] = test system: catalytic antibody 72D4 (anti-2, monoclonal antibody raised against quaternary piperidinium hapten 2); assay: Antibody 72D4 catalysed aldol addition of acetone to aldehyde 10a giving 11a, amine 7 as cofactor (RP-HPLC); type: biochemical; details: for Km: random bimolecular model for amine 7 and acetone; for effective molarity kcat/kapp (7): versus background reaction catalysed by 7 alone, aldehyde 10a at 200 mM
Method: The aldol reaction of 10a and acetone to 11a with amine 7 as cofactor was followed by direct measurement of the formation of 11a by reverse-phase HPLC. The observed background reaction was first order in acetone (0.5% to 10% v/v) and aldehyde 10a (100-2000 mM), and was also first order in catalyst, either the amine cofactor 7 (50-1500 mM) as free base or hydroxide. The corresponding rate constants are kapp (7) (third order) and kapp (OH^-) (second order) for the apparent rate constant for each process at different pH, and k(7) and kOH^- are the third order rate constants for catalysis by amine 7 as free base and hydroxide, respectively (FIG. 1).
For acetone and aldehyde 10a, the background kuncat is the second order rate constant of their apparent bimolecular reaction, catalyzed by both hydroxide and amine 7 ([7]=0.2 mM and 0.4 mM, respectively).
Aldehydes 10a-10e were used as 25 mM stock solutions in 1:1 acetonitrile/water of the RP-HPLC purified samples. Cofactor 7 was used as 25 mM stock solution in pure water of the RP-HPLC purified trifluoroacetate salt. Antibody 72D4 was purified to homogeneity (SDS PAGE) by ion exchange and Protein G chromatography as described before,^4a at 8-12 mg/mL stock solutions in either bicine (50 mM, pH 8.0) or phosphate (50 mM, pH 7.4) with 100 mM NaCl.
The setup for the kinetics of FIG. 2 is representative: a stock solution (1.8 mL) containing the antibody ([…]) and acetone (1.11% v/v) in 50 mM bicine, 100 mM NaCl, pH 8.0 was separated into four portions of […]. To each was added 3.6 mL of a 25 mM stock solution of each of the aldehydes 10a to 10d. Each […] portion was further separated into four 90 mL portions and 10 mL of solutions of amine 7 in 50 mM bicine, 100 mM NaCl (1 mM, 2 mM, 4 mM, 8 mM) were added. Finally, 50 mL of each 100 mL sample was added to 0.5 mL of a 25 mM stock solution of hapten 12 in water. In each manipulation, the samples were vigorously shaken using a Vortex shaker to ensure homogeneity.

[2] = test system: catalytic antibody 72D4 (anti-2, monoclonal antibody raised against quaternary piperidinium hapten 2); assay: Antibody 72D4 catalysed formation of α-aminonitrile 17 from amine 7, acetone and cyanide; type: biochemical
Method: Conditions: 50 mM bicine, 0.2M NaCN, pH 9.0, 20° C. […] The reaction was initiated by addition of a concentrated stock solution of either amine 7 or buffered NaCN (no difference was noted). As above, pairs of identical antibody solutions, with and without hapten 12 as inhibitor, were used for measuring the background and catalyzed reaction rates, respectively. 15 mL samples were quenched at 45 sec intervals by mixing with 15 mL 0.5N TFA in water, immediately frozen, and later analyzed by RP-HPLC (C-18 as above, 92.5% H2 O, 7.5% CH3 CN, tR (17)=7.8 minutes) against an internal standard (4-hydroxy-benzoic acid, tR =9.4 minutes). […] The background rate kuncat was derived from the inhibited samples (V vs. [S], 6 points, r^2 =1.0). KM and Vmax were obtained from the Lineweaver-Burk plot of 1/V vs. 1/[S] as above (50, 100, 200, 400, 800, 1600 mM 7, 6 points, r^2 =0.98).

## CC(=O)Nc1ccc(CC(C)C=O)cc1 (racemic) [aldehyde 10a, 4-(3'-oxo-2'-methyl-prop-1'-yl)-acetanilide]
[1]; apparent effective molarity, aldehyde 10a varied, [7]=0.4 mM, table 1
  rate acceleration kcat/kuncat (aldehyde 10a): 102 M
[1]; pH 8.0, antibody-acetone-amine complex reacting with aldehyde 10a (200 mM fixed)
  kcat: 0.014 M⁻¹ s⁻¹
[1]; pH 9.0, antibody-acetone-amine complex reacting with aldehyde 10a
  kcat: 0.053 M⁻¹ s⁻¹

## CC(C)=O [acetone]
[1]; apparent effective molarity, acetone varied, [7]=0.2 mM, table 1
  rate acceleration kcat/kuncat (acetone): 123 M
[1]; pH 8.0, 200 mM fixed aldehyde 10a, read-out: KM (acetone)
  Km: 19000 µM

## C[N+]1(Cc2ccc(C(=O)NCCO)cc2)CCCCC1 [hapten 12, reference compound]
[1]; 250 mM hapten 12 in the assay set-up
  inhibition of catalytic activity by addition of hapten 12: quantitatively inhibited
[2]; formation of α-aminonitrile 17
  inhibition of catalysis by hapten 12: quantitatively inhibited

## NCc1ccc(C(=O)NCCO)cc1 [amine 7, N(hydroxyethyl)-4(aminomethyl)-benzamide]
[1]; pH 8.0, 200 mM fixed aldehyde 10a, read-out: KM (7)
  Km: 45 µM
[1]; pH 8.0
  effective molarity kcat/kapp (7): 370 M
[1]; pH 9.0, read-out: KM (7)
  Km: 95 µM
[1]; pH 9
  effective molarity kcat/kapp (7): 440 M
[1]; specific activation of the cofactor upon binding to the antibody, table 1
  rate acceleration kcat/kuncat (cofactor 7): 950
[2]; pH 9.0, 1% v/v acetone, 0.2M CN-, 20° C., amine 7 varied
  kcat: 0.012 s⁻¹
[2]; pH 9.0, 1% v/v acetone, 0.2M CN-, 20° C., amine 7 varied 50-1600 mM
  Km: 130 µM
